Experimental data reported in patent US20240067621A1, “POLYFLUORINATED CANNABINOID AND CANNABINOID-LIKE COMPOUNDS AND METHODS OF SYNTHESIS AND USE THEREOF” (The Board of Regents For The Oklahoma Agricultural And …, priority 2021, published 2024).

System: not given
Details: not given

First: CC1=CC(c2c(F)c(F)c(C#N)c(F)c2F)C(C#N)=CC1 (centres unmarked)
Second: COC(=O)C1=CCC(C(C)(C)C)=CC1c1c(F)c(F)c(C#N)c(F)c1F (centres unmarked)
The melting point of the first is higher: 117 to 120 °C for the first, 108 to 110 °C for the second.

First: COC(=O)C1=CCC(C)=CC1c1c(F)c(F)c(C(=O)OC)c(F)c1F (centres unmarked)
Second: COC(=O)C1=CCC(C)=CC1c1c(F)c(F)c(C(F)(F)F)c(F)c1F (centres unmarked)
The melting point of the first is lower: 91 to 95 °C for the first, 104 to 105 °C for the second.

First: COC(=O)C1=CCC(OC(=O)OC(C)(C)C)=CC1c1c(F)c(F)c(C#N)c(F)c1F (centres unmarked)
Second: COC(=O)C1=CCC(C(C)(C)C)=CC1c1c(F)c(F)nc(F)c1F (centres unmarked)
The melting point of the first is higher: 104 to 105 °C for the first, 59 to 60 °C for the second.

Work on COC(=O)C1=CCC(C)=CC1c1c(F)c(F)nc(F)c1F (centres unmarked) yielded a melting point of 93 to 96 °C.

System: cannabinoid receptors
Details: natural (trans) THC versus its cis counterpart; cited from earlier work

For CCCCCc1cc(O)c2c(c1)OC(C)(C)[C@@H]1CCC(C)=C[C@@H]21 [THC, trans-Δ^9 -tetrahydrocannabinol], the “affinity for cannabinoid receptors” value is listed as “higher affinity”.
